Measurements published in patent US20260374793A1, “MITOCHONDRIA SPECIFIC TRANSCRIPTION INHIBITORS” (LUNELLA BIOTECH, INC., priority 2023, published 2026).

Assays:
[1] = In vivo chicken embryo toxicity assessment (CAM assay); settings: chicken, embryo
MDA-MB-231 cells [2] = assay: 3D anchorage independent growth (mammosphere formation) assay, MDA-MB-231; type: cell-based
Protocol: Bar graphs are shown as the mean±SEM; t-test, two-tailed test: * P<0.05, ** P<0.01, **** P<0.0001.
(§1) FIGS. 5A and 5B show IC50 curves for Compound [I] calculated using GraphPad Prism. The results are based on mammosphere formation assay of Compound [I] on both colonies and spheres, for MCF-7 cells (FIG. 5A), and for MDA-MB-231 cells (FIG. 5B).
(§2) 3D Anchorage Independent Growth Assay: This assay is also referred to as the mammosphere formation assay. A single-cell suspension was prepared using enzymatic, and manual disaggregation (25-g needle). Then, cells were plated at a density of 500 cells/cm^2 in mammosphere medium (DMEM-F12+1× B-27 Plus Supplement+20 ng/ml EGF+Pen/Strep) under non-adherent conditions, in culture dishes pre-coated with (2-hydroxyethylmethacrylate) (poly-HEMA, Sigma Aldrich Inc.), called “mammosphere plates.” Cells were grown for 5 days and maintained in a humidified incubator at 37 °C. After 5 days of culture, 3D-mammospheres >50 μm were counted using an eye piece (“graticule”), and the percentage of cells plated which formed spheres was calculated and is referred to as percent mammosphere formation, and was normalized to one (1=100% MFE). 3D mammosphere formation efficiency (MFE) was analyzed in both the ATP-low and ATP-high sub-populations of cells. All 3D mammosphere experiments were performed in triplicate, at least 3 times independently.

MCF-7 cells [3] = assay: SRB cell viability assay, MCF-7; type: cell-based; settings: Homo sapiens, MCF7, cytotoxic starting at, FIG. 1B, read-out: concentration at which cytotoxicity starts
Description: (§3) The mitochondria specific transcription inhibitor (MSTI) compounds disclosed herein represent a new class of compounds having exceptional selectivity and activity towards cancer cells. Embodiments of the MSTI compounds disclosed herein may be used as therapeutic agent to selectively eradicate CSCs for treating and/or preventing tumor recurrence and/or metastasis. […] This assay measures the amount of residual protein that adheres to tissue culture dishes and is a surrogate marker of cell viability.
(§4) Reagents and Model Cell Lines: It should be apparent that other cell lines may be used without departing from the present approach. The human breast adenocarcinoma cell line MCF-7 was from the American Type Culture Collection (ATCC). hTERT-BJ1 cells were from Clontech, Inc. MCF-7 and hTERT-BJ 1 cells were grown in DMEM supplemented with 10% fetal bovine serum, GlutaMAX and 1% penicillin-streptomycin and incubated at 37C in a humidified 5% C02 incubator. The medium was changed 2-3 times/week.
(§5) The present approach includes methods of confirming cell viability. Persons of skill in the art may select one or more methods for confirming cell viability suitable for the particular embodiment. […] Finally, the protein-bound dye was dissolved in a 10 mM Tris, pH 8.8 solution and read using the plate reader at 540-nm. […]

[4] = SRB cell viability assay, hTERT-BJ1; type: cell-based; settings: human, hTERT-BJ1 cells, cytotoxic starting at about, FIG. 1C, read-out: concentration at which cytotoxicity starts
Description: as §3, §4, §5

MCF-7 cells [5] = assay: 3D anchorage independent growth (mammosphere formation) assay, MCF-7; type: cell-based, human
Description: The following paragraphs summarize data for Compound [I]. It should be appreciated that preliminary results for other embodiments are consistent with the results for Compound [I], but analysis is ongoing. FIGS. 1A-1C show mammosphere formation results, SRB assay results on MCF-7 cells, and SRB assay results on BJ1-hTERT cells, for different concentrations of Compound [I]. The asterisks indicate P-value, with ** indicating P<0.01, *** indicating P<0.001, and **** indicating P <0.0001. […] FIGS. 1B and 1C show results of the SRB assay for (B) MCF-7 cells and (C) hTERT-BJ1 cells.
as §1, §2

MCF-7 cells [6] = assay: 2D colony formation, MCF-7; type: cell-based, human
Description: FIGS. 2A and 2B show the effect of Compound [I] at different concentrations on MCF-7 colony formation (A) in petri dishes, and (B) expressed in terms of colony formation relative to the control.
as §1

MDA-MB-231 cells [7] = assay: 2D colony formation, MDA-MB-231; type: cell-based
Description: FIGS. 4A and 4B show the effect of Compound [I] at different concentrations on MDA-MB-231 colony formation (A) representative phase images of 2D-colonies, and (B) expressed in terms of colony formation relative to the control. […] Bar graphs are shown as the mean±SEM; t-test, two-tailed test: **** P<0.0001.
as §1

MDA-MB-231 cells [8] = assay: Chorio-allantoic membrane (CAM) assay in chicken eggs, tumor growth; type: in vivo; settings: daily for 8 days; tumors weighed day E18; FIG. 8A
Protocol: The well-established chorio-allantoic membrane (CAM) assay in chicken eggs were used to quantitatively measure tumor growth in MDA-MB-231 cells. An inoculum of 1×10^6 MDA-MB-231 cells was added onto the Upper CAM of each egg on Day 9 and then eggs were then randomized into groups. On day 10, tumors were detectable and were then treated daily for 8 days with vehicle alone (1% DMSO in PBS), or Compound [I]. After 8 days of drug administration, on day E18, all tumors were weighed. […] Bar graphs are shown as the mean±SEM; t-test, two tailed test: * P<0.05, **** P<0.0001.

chicken embryo = assay: In vivo chicken embryo toxicity assessment (CAM assay)
MCF-7 cells [9] = assay: Seahorse XF96 oxygen consumption rate (OCR), mitochondrial respiration, MCF-7; type: cell-based, human
Protocol: FIGS. 6A-6D show mitochondrial respiration, basal respiration, maximal respiration, and ATP production, respectively, for different concentrations of Compound [I] on MCF-7 cells. The metabolic profile MCF-7 was performed using the Seahorse XF96 Analyzer after 6 days of treatment with Compound [I].

MCF-7 cells [10] = assay: Extracellular acidification rate (ECAR), glycolytic function, MCF-7; type: cell-based, human
Description: FIGS. 7A-7D show glycolytic function, glycolysis, glycolytic capacity, and glycolytic reserve, respectively, for different concentrations of Compound [I] on MCF-7 cells.

MDA-MB-231 cells [11] = assay: CAM assay in chicken eggs, spontaneous tumor metastasis (qPCR of human Alu sequences); type: in vivo; settings: daily for 8 days, Lower CAM, FIG. 8B
Protocol: The CAM assay was used in chicken eggs to quantitatively measure spontaneous tumor metastasis in MDA-MB-231 cells. An inoculum of 1×10^6 MDA-MB-231 cells was added onto the Upper CAM of each egg on Day 9 and then eggs were then randomized into groups. On day 10, tumors were detectable and they were then treated daily for 8 days, with vehicle alone (1% DMSO in PBS), or Compound [I]. After 8 days of drug administration, the Lower CAM was collected to evaluate the number of metastatic cells and analyzed by qPCR with specific primers for Human Alu sequences. […] Bar graph is shown as the mean±SEM; t-test, two tailed test: ns P >0.05, ** P <0.01.

[12] = tested on: mitochondrial RNA polymerase (POLRMT); settings: as a POLRMT inhibitor; cited from earlier work
[13] = tested on: human cancer cell xenografts; settings: oral; cited from earlier work
mice = settings: oral; four-week trial in mice; cited from earlier work

SMILES: CCN(CC(=O)NCCN(C)C)C(=O)[C@@H](C)Oc1ccc2c(-c3ccc(NC(=O)CCCCCCCCCCC[P+](c4ccccc4)(c4ccccc4)c4ccccc4)cc3Cl)cc(=O)oc2c1.[Cl-] [Compound [I], [12-[3-chloro-4-[7-[(1R)-2-[2-[2-(dimethylamino)ethylamino]-2-oxo-ethyl]-ethyl-amino]-1-methyl-2-oxo-ethoxy]-2-oxo-chromen-4-yl]anilino]-12-oxo-dodecyl]-triphenyl-phosphonium chloride]
- survival at 100 µM ([1]; 100 μM, read-out: % Alive): 100%
- mortality at 100 µM ([1]; 100 μM, read-out: % Dead): 0%
- survival at 250 µM ([1]; 250 μM, read-out: % Alive): 100%
- mortality at 250 µM ([1]; 250 μM, read-out: % Dead): 0%
- survival at 500 µM ([1]; 500 μM, read-out: % Alive): 87.5%
- mortality at 500 µM ([1]; 500 μM, read-out: % Dead): 12.5%
- IC50 (MDA-MB-231 cells [2]; Homo sapiens, MDA-MB-231 spheres, GraphPad Prism, FIG. 5B): 8200 nM
- MCC (MCF-7 cells [3]): 1000 nM
- MCC [4]: ~2500 nM
- inhibition at 2.5 µM (MCF-7 cells [5]; Homo sapiens, MCF7, 2.5 μM, FIG. 1A, read-out: inhibition of MCF-7 spheres): > 50%
- IC50 (MCF-7 cells [5]; Homo sapiens, MCF7, MCF-7 spheres, GraphPad Prism, FIG. 5A): 3200 nM
- IC50 (MCF-7 cells [6]; Homo sapiens, MCF7, MCF-7 colonies, GraphPad Prism, FIG. 5A): 700 nM
- IC100 (MCF-7 cells [6]; Homo sapiens, MCF7, complete inhibition, FIG. 2B, read-out: concentration from which MCF-7 colony formation is completely inhibited): 2.5 µM
- IC50 (MDA-MB-231 cells [7]; Homo sapiens, MDA-MB-231 colonies, GraphPad Prism, FIG. 5B): 1500 nM

SMILES: CCN(CC(=O)NCCN(C)C)C(=O)[C@@H](C)Oc1ccc2c(-c3ccc(NC(=O)CCCCCCCCCCC[P+](c4ccccc4)(c4ccccc4)c4ccccc4)cc3Cl)cc(=O)oc2c1.[Cl-] [Compound [I]]
- tumor growth (MDA-MB-231 cells [8]): potently inhibits tumor growth
- Alive (chicken embryo; 100 μM, of 17 embryos): 17
- Dead (chicken embryo; 100 μM, of 17 embryos): 0
- Alive (chicken embryo; 250 μM, of 16 embryos): 16
- Dead (chicken embryo; 250 μM, of 16 embryos): 0
- Alive (chicken embryo; 500 μM, of 16 embryos): 14
- Dead (chicken embryo; 500 μM, of 16 embryos): 2
- toxicity towards normal cells (chicken embryo; at concentrations several orders of magnitude above those with potent activity, FIG. 9): not toxic towards normal cells
- MDA-MB-231 3D mammosphere formation (MDA-MB-231 cells [2]; FIG. 3A): significantly decreased
- oxygen consumption rate (OCR) (MCF-7 cells [9]; 0.5 μM and 1 μM, after 6 days of treatment, FIG. 6A): reduction
- basal respiration (MCF-7 cells [9]; 0.5 μM and 1 μM, after 6 days of treatment, FIG. 6B): decreases
- maximal respiration (MCF-7 cells [9]; 0.5 μM and 1 μM, after 6 days of treatment, FIG. 6C): decreases
- ATP production (MCF-7 cells [9]; 0.5 μM and 1 μM, after 6 days of treatment, FIG. 6D): decreases
- mitochondrial respiration (MCF-7 cells [9]; overall conclusion): specifically inhibits mitochondrial respiration
- glycolysis (MCF-7 cells [10]; FIG. 7B): No significant changes
- glycolytic capacity (MCF-7 cells [10]; FIG. 7C): No significant changes
- glycolytic reserve (MCF-7 cells [10]; FIG. 7D): No significant changes
- glycolysis (overall conclusion) (MCF-7 cells [10]; FIGS. 7A-7D): does not affect glycolysis
- metastasis (MDA-MB-231 cells [11]): targets and prevent cancer metastasis
- inhibition of MCF-7 spheres (MCF-7 cells [5]; 10 μM, FIG. 1A): near complete inhibition
- inhibition of MCF-7 spheres (MCF-7 cells [5]; at all concentrations, FIG. 1A): inhibition of MCF-7 spheres at all concentrations
- MCF-7 colony formation (MCF-7 cells [6]; 2D colonies, FIG. 2A): significantly decreased
- effect on colony formation versus sphere formation (MCF-7 cells [6]; MCF-7, from IC50 values of Table 1): more effective on colony formation, as compared to sphere formation
- MDA-MB-231 colony formation (MDA-MB-231 cells [7]; 2D colonies, FIGS. 4A-4B, **** P<0.0001): significantly decreases
- effect on colony formation versus sphere formation (MDA-MB-231 cells [7]; MDA-MB-231, from IC50 values of Table 1): more effective on colony formation, as compared to sphere formation

SMILES: C[C@@H](Oc1ccc2c(-c3ccc(F)cc3Cl)cc(=O)oc2c1)C(=O)N1CCC[C@H](C(=O)O)C1 [POLRMT inhibitor]
- mitochondrial DNA expression [12]: inhibits mitochondrial DNA expression
- anti-tumor effects [13]: strong anti-tumor effects
- OXPHOS dysfunction or toxicity (mice): no evidence of OXPHOS dysfunction or toxicity
